Data taken from patent US20150153325A1 (priority 2012, published 2015).
Several values for one entry are separate records, joined by “and”; a condition that tells them apart may be missing. Identical values can stand only once. Like-named read-outs stand apart in the source and are kept apart here.

Columns and labels:
[1] = system: glutamate-induced neurotoxicity in ESNs; format: cell-based, mouse
[2] = system: ESNs; format: cell-based, mouse
[3] = system: ESNs; format: cell-based, mouse; details: read-out: EC50 for Ca^2+ uptake
[4] = system: Ca^2+ influx through LTX pores; format: cell-based, mouse
[5] = system: BoNT/A-intoxicated ESNs; format: cell-based, mouse
[6] = system: ESNs; format: cell-based, mouse; remark: listed apart in the source
[7] = system: ESNs; format: cell-based, mouse; remark: listed apart in the source
[8] = system: ESNs; format: cell-based, mouse; remark: listed apart in the source
[9] = target: VAMP2 (Mus musculus, UniProt P63044); format: cell-based
[10] = system: ESNs; assay: cells; format: cell-based, mouse; details: read-out: EC50 of loss of viability (metabolic activity)
[11] = system: ESNs; format: cell-based, mouse; remark: listed apart in the source
[12] = system: ESNs; details: mouse

Chain of VAMP2 (P63044 2-116 limits assumed): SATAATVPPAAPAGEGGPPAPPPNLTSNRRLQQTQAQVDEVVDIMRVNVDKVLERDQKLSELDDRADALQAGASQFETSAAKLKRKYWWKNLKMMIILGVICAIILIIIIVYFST

Compound: N#Cc1cc2c(cc1[N+](=O)[O-])=NC(=O)C(=O)N=2 [CNQX, 6-cyano-7-nitroquinoxaline-2,3-dione]
- effect on glutamate-induced cell death [1]: not protective

Compound: gadolinium chloride [Gd^3+]
- effect on glutamate-induced cell death [1]: no effect on viability
- elimination of acute glutamate-evoked Ca^2+ signal [2]: over 95%

Compound: α-Latrotoxin [LTX]
- EC50 [3]: 0.175 nM
- Ca^2+ influx, normalized to LTX (%) [4]: 100.0%
- rescue of full-length SNAP-25 [5]: 92±4.6% and 98±1.7%
- delay between addition and onset of Fluo-4 fluorescence [6]: 1.5 min
- decrease of total protein yield compared to controls [7]: 44±16% and 52±19%
- decrease of total protein yield relative to untreated cultures [7]: approximately 50%

Compound: NCc1cc(=O)[nH]o1 [muscimol]
- GABA-A receptor current [8]: evokes a strong outward Cl− current

Compound: Tetanospasmin neurotoxin [tetanus]
- VAMP2 signal by immunoblot [9]: nearly complete loss of VAMP2 signal

Compound: N[C@H](CCCP(=O)(O)O)C(=O)O [APV, R-2-amino-5-phosphonopentanoate]
- effect on NMDA-induced neurotoxicity [1]: blocked in a dose-dependent manner
- effect on glutamate-induced cell death [1]: prevented glutamate-induced cell death in a dose-dependent manner

Compound: N[C@@H](CCC(=O)O)C(=O)[O-].[Na+] [glutamate, Mono-sodium glutamate]
- EC50 ([10]; Mus musculus, 24 h): 410 nM
- Normalize log2 (FC) Casp4 [11]: 2.96
- Normalize log2 (FC) Casp6 [11]: 2.15
- Normalize log2 (FC) Casp12 [11]: 3.03
- Normalize log2 (FC) Cdk1 [11]: 3.11
- Normalize log2 (FC) CflaR [11]: 2.54
- Normalize log2 (FC) Dap1 [11]: 2.84
- Normalize log2 (FC) Dapk2 [11]: 4.18
- Normalize log2 (FC) Dram1 [11]: 2.63
- Normalize log2 (FC) Fadd1 [11]: 1.98
- Normalize log2 (FC) Grin1 [11]: 0.39
- Normalize log2 (FC) Pawr [11]: 3.49
- Normalize log2 (FC) Snap25 [11]: −0.52
- Normalize log2 (FC) Traf1 [11]: 5.02
- duration of evoked series of action potentials [8]: 5 to 10 s
- concentration at which primary necrosis was first observed [12]: 3000 µM

Compound: NCCCC(=O)O [GABA, γ-aminobutyric acid]
- acute Ca^2+ uptake [2]: no effect

Compound: CN[C@H](CC(=O)O)C(=O)O [NMDA, N-methyl-D-aspartate]
- EC50 [10]: 390 nM
